Measurements published in US20190125714A1, “CALPAIN INHIBITORS IN THE PREVENTION AND/OR TREATMENT OF VENTRICULAR REMODELLING” (FUNDAClÓ HOSPITAL UNIVERSITARI VALL D'HEBRON - INSTITUT DE …, priority 2016, published 2019).
Where two headings read alike, the source gives them in different places.

Columns and labels:
[1] = intravenously before initiating ischemia and during a reperfusion of 6 hours; cited from earlier work
[2] = administered at the start (onset) of reperfusion; cited from earlier work
[3] = system: Sprague-Dawley rats; experiment: Inflammatory cell infiltration (CD68 immunohistochemistry) in hearts reperfused for 3 days; type: in vivo, rat; conditions: 3 days of reperfusion
Procedure: Sprague-Dawley rats (250-300 g) were premedicated with atropine (0.05 mg/kg ip), anaesthetized with ketamine (75 mg/kg ip) and xylazine (10 mg/kg ip), and mechanically ventilated (Inspira ASV, Harvard Apparatus). Anaesthesia was maintained with 1-2% isoflurane and body temperature controlled with a heating pad to 36-37° C. The heart was exposed through the fourth intercostal space and the left anterior descending coronary artery (LAD) ligated using 6/0 silk suture (Ethicon Endo-surgery, OH, USA), 1 mm distal to left atrial appendage. After occlusion for 30 min, the suture was loosened to start reperfusion and buprenorphine (0.05 mg/kg per 6 h, subcutaneously) was given for 48 h. Mice with lack of ST-elevation during ischemia or lack of ST-recovery at reperfusion were excluded from further evaluation.
Macrophage infiltration in the non-infarcted myocardium was analyzed by immunohistochemistry in hearts reperfused for 3 days (n=4 per group).
Myocardial sections were exposed to H2O2/methanol, levamisol (DakoCytomation) and avidin/biotin blocking (Vector Laboratories) to neutralize endogenous peroxidase, phosphatase and biotin, respectively. Sections were probed with CD68 (AbD Serotec) for monocytes/macrophages, incubated with a biotinylated secondary antibody (1:200, ABC Peroxidase standard stainig kit, Thermo Scientific) in 2% normal blocking serum and visualized using 3, 3′-diaminobenzidine (DAB, Sigma). Six random photomicrographs from the infarct area and six from the non-infarcted area for each heart (n=6 per group) were taken at 200× magnification.

[4] = system: Sprague-Dawley rats; experiment: Myocardial hypertrophy and fibrosis induced by isoproterenol; type: in vivo, rat; conditions: 7 days
Procedure: Chronic administration of isoproterenol is the most common small animal model in the study of myocardial remodeling. In order to study the effect of calpain inhibition in AVR of a different cause than myocardial infarction, myocardial hypertrophy and fibrosis induced by isoproterenol.
The calpain inhibitor SNJ-1945 was co-administered orally once a day to male Sprague-Dawley rats that received 5 mg/Kg/day isoproterenol (ISO) […] for 1 week. Assayed groups were as follows:
Isoproterenol group (ISO): administration of isoproterenol as a single daily subcutaneous injection for 7 consecutive days.
SNJ-1945 treated group (SNJ+ISO): co-administration of SNJ-1945 (orally) and isoproterenol (subcutaneous) for 7 consecutive days.
Hearts were obtained and compared with vehicle-treated and ISO treated rats not receiving the calpain inhibitor.
Echocardiography was performed using a Vivid portable ultrasound system with a i12L-RS 12 MHz transducer (GE Healthcare) as described earlier (Poncelas, Inserte et al. 2015, “Obesity induced by high fat diet attenuates postinfarct myocardial remodeling and dysfunction in adult B6D2F1 mice”, Journal of Molecular and Cellular Cardiology-2015, vol. no. 84, pp.: 154-161).
For the PCR, total RNA was extracted from ischemic and non-ischemic area of heart samples of the three assayed groups using TRIsure™ reagent (BIOLINE, UK) following the manufacturer's protocol. Quantitative RT-PCR was performed using Taqman universal PCR master mix (Applied Biosystems, USA). The amplification program consisted of 50° C. for 2 minutes, 95° C. for 10 minutes and 40 cycles of 95° C. for 15 sec and 60° C. for 1 minutes and was performed in a 7900HT Fast Real-Time PCR System (Applied Biosystems, USA). Primers used for ANP, BNP, collagen I, Myh6, Myh7, and […] were purchased from Thermofisher and were those in the following Gene Expression Assays (Rn00561661_m1, Rn04219558_g1, Rn01463848_m1, Rn00691721_g1, Rn01488777_g1, and Rn00572010_m1, respectively, reference to assays retrievable from Thermofisher catalogue at Mar. 1, 2017; https://www.thermofisher.com/order/genome-databaseldetails/gene-expression/).

[5] = system: calpain; experiment: Isolated rat hearts subjected to ischemia/reperfusion, calpain-specific α-fodrin breakdown products; conditions: perfusion of isolated rat hearts, data not shown
[6] = system: calpain; experiment: Proteolysis of α-fodrin after oral gavage, 60 minutes of reperfusion; type: in vivo, rat; conditions: 120 mg/kg orally (gavage); after 60 minutes of reperfusion
[7] = target: T1, matrix metalloproteinase-2 (MMP-2) (Rattus norvegicus, UniProt P33436); experiment: MMP-2 gelatinolytic activity by gelatin zymography of myocardial extracts; type: biochemical; conditions: 5, 10 and 50 μM, incubated overnight at 37° C.
T1 construct: myocardial preparations obtained from rats reperfused for 21 days (control group); from tissue; host or cells: rat myocardium (extracts after 21 days of reperfusion)
T1 sequence (P33436 110-662): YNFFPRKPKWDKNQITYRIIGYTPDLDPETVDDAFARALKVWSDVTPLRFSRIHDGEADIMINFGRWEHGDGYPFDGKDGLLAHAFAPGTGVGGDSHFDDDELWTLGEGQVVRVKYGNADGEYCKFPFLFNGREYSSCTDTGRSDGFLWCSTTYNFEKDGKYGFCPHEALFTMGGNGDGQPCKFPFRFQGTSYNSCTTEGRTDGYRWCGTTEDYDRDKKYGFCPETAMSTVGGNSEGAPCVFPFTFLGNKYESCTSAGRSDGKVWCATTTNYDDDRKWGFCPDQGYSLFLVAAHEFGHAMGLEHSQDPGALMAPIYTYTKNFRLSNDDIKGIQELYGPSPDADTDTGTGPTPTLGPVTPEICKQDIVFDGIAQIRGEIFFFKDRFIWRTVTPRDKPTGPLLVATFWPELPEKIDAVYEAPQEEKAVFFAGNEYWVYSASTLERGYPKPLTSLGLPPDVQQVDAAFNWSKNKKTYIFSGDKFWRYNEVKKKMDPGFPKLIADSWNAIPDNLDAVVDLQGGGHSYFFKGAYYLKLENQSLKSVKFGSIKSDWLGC
Procedure: Activity of MMP-2 was evaluated by gelatin zymography. Briefly, myocardial preparations obtained from rats reperfused for 21 days (control group) were run on a 10% polyacrylamide gel copolymerized with 1.5 mg/ml gelatin. After washing with 2.5% Triton X-100, gels were cut into strips and incubated separately, overnight, in zymography buffer with SNJ-1945 at the concentrations of 5, 10 and 50 μM, DMSO as a vehicle control or the selective MMP inhibitor ONO-4817 (N-[(1 S,3S)-1-[(Ethoxymethoxy)methyl]-4-(hydroxyamino)-3-methyl-4-oxobutyl]-4-phenoxybenzamide) (50 μM, Tocris). It was further examined MMP-2 activity (as % of 0 μM) in samples prepared from animals receiving SNJ-1945 by oral gavage and reperfused for 21 days (Chronic group). Gels were stained in 0.25% Coomassie Brilliant blue G, 40% methanol, and gelatinolytic activities quantitated after destaining.

[8] = system: Sprague-Dawley rats; conditions: for Attenuation of scar area (LV area stained with picrosirius red): 21 days of reperfusion
[9] = added to the cardioplegic solution and during 60 min of reperfusion; cited from earlier work
[10] = SNJ-1945 orally once a day with isoproterenol 5 mg/Kg/day
[11] = oral co-administration with ISO

CCN(CC)Cc1ccc(/C=C/c2ccccc2C(=O)NC(Cc2ccccc2)C(=O)C(N)=O)cc1 (centres unmarked) [A-705253]
Hemodynamic and contractile function [1]: improved
Infarct size [1]: reduced
Cardioprotective effect [2]: cardioprotective effect

COCCOCCOC(=O)N[C@@H](CC(C)C)C(=O)N[C@@H](Cc1ccccc1)C(=O)C(=O)NC1CC1 [SNJ-1945, ((1S)-1-((((1S)-1-benzyl-2,3-dioxo-3-(cyclopropylamino)-propyl)amino)carbonyl)-3-methylbutyl)carbamic acid 5-methoxy-3-oxapentyl ester]
Infiltration of monocytes/macrophages: acute and chronic treatments combined ([3]; Ac+Chr group, P<0.001): no significant additive effect
Infiltration of monocytes/macrophages (CD68+) in the ischemic area ([3]; Acute group, P=0.002): attenuate
Infiltration of monocytes/macrophages (CD68+) in the non-ischemic area ([3]; Acute group, P=0.046): attenuate
Infiltration of monocytes/macrophages (CD68+) in the non-ischemic area ([3]; Chronic group, P=0.001): attenuate
Infiltration of monocytes/macrophages (CD68+) in the ischemic area ([3]; Chronic group, P=0.028): attenuate
Increase in heart weight induced by isoproterenol [4, 10]: reduces the increase
Increase in interventricular wall (IVSWT) thickness induced by isoproterenol, echocardiography [4, 10]: reduces the increase
Increase in posterior wall (PWT) thickness induced by isoproterenol, echocardiography [4, 10]: reduces the increase
ANP mRNA levels (PCR) [4, 11]: reduced
BNP mRNA levels (PCR) [4, 11]: reduced
Calpain activation [4, 11]: attenuated
Cardiomyocyte crossectional area [4, 11]: reduced
Expression of TGFβ induced by ISO (PCR) [4, 11]: significantly reduced
Expression of collagen I induced by ISO (PCR) [4, 11]: significantly reduced
Intraventricular collagen deposition induced by ISO [4, 11]: significantly reduced
β-MHC/α-MHC ratio (PCR) [4, 11]: reduced
Calpain-specific α-fodrin breakdown products (calpain inhibition) [5]: dose-dependent reduction
Proteolisis of α-fodrin [6]: significantly reduced
MMP-2 activity (gelatinolytic) [7]: does not inhibit
LV dilation and dysfunction (echocardiography: LVEDD, LVESD, EF) ([8]; Ac+Chr group: acute ip plus oral 14 days, measured at 1 week of reperfusion vs control): significantly attenuated
Attenuation of scar area (LV area stained with picrosirius red) ([8]; Ac+Chr group, P=0.003): 33.7%
Levels of α-SMA (marker of fibroblast activation, western-blot) ([8]; Ac+Chr group, P=0.009): reduced
Interstitial fibrosis, acute and chronic phase combined ([8]; Ac+Chr group, P=0.016): No further reduction
β-MHC protein levels (western-blot, relative to GAPDH) ([8]; Ac+Chr group, P=0.019): attenuated
Cardiomyocyte hypertrophy (cross-sectional area, non-ischemic myocardium) ([8]; Ac+Chr group, P=0.021): significantly reduced
LV dilatation, ejection fraction and scar area: combination vs individual treatments ([8]; Ac+Chr vs acute or chronic alone): did not result in a statistically significant improvement
Hypertrophy markers: additive effect when both treatments were combined ([8]; Ac+Chr vs single treatments): No significant additive effect
Cardiomyocyte hypertrophy (cross-sectional area, non-ischemic myocardium) ([8]; Acute group): not acute
β-MHC protein levels (western-blot, relative to GAPDH) ([8]; Acute group): attenuated only in groups treated chronically
Attenuation of scar area (LV area stained with picrosirius red) ([8]; Acute group, 120 mg/kg ip at reperfusion, P=0.002): 29.1%
LV dilation and dysfunction (echocardiography: LVEDD, LVESD, EF) ([8]; Acute group: 120 mg/kg intraperitoneally 5 min before reperfusion, measured at 1 week of reperfusion vs control): significantly attenuated
Interstitial collagen deposition in the non-infarcted area ([8]; Acute group, P=0.109): not acute treatment
Attenuation of scar area (LV area stained with picrosirius red) ([8]; Chronic group, 120 mg/kg oral 14 days from 24 h of reperfusion, P=0.036): 22.7%
LV dilation and dysfunction (echocardiography: LVEDD, LVESD, EF) ([8]; Chronic group: 120 mg/kg orally over 14 days starting after 24 h of reperfusion, at 21 days of reperfusion vs control): significantly attenuated
Levels of α-SMA (marker of fibroblast activation, western-blot) ([8]; Chronic group, P=0.012): reduced
Interstitial collagen deposition in the non-infarcted area ([8]; Chronic group, P=0.029): reduced
β-MHC protein levels (western-blot, relative to GAPDH) ([8]; Chronic group, P=0.036): attenuated
Cardiomyocyte hypertrophy (cross-sectional area, non-ischemic myocardium) ([8]; Chronic group, P=0.041): significantly reduced
Echocardiographic parameters, acute vs chronic treatment ([8]; at the end of the experiment (21 days)): No significant differences
Survival rate between groups ([8]; control, acute, chronic, Ac+Chr, overall mortality rate 12.5%): no differences
Left ventricular dysfunction after cardioplegic arrest [9]: prevents left ventricular dysfunction
